Here are results for 33 compounds from the METLIN SMRT retention time set (Domingo-Almenara et al. 2019).

The data set in a line: gradient 5% acetonitrile 3 min, to 50% in 2 min, to 85% in 15 min, held 3 min, 100 µL/min. The settings on record: column: Zorbax Extend-C18 2.1 x 50 mm; eluents: water / acetonitrile, 0.1% formic acid. Put shortly: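 In both positive and negative ionization mode, a quadrupole time-of-flight mass spectrometer coupled to HPLC analyzed pure standards run in mixtures of ~100 molecules. The Zorbax Extend-C18 column (2.1 × 50 mm, 1.8 μm) was operated at 100 μL/min with water and acetonitrile, each containing 0.1% formic acid. The dead volume was 40 μL and the dwell volume 900 μL. Retention time came from adduct peaks that were computationally picked and individually inspected by hand.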
The compound `CC(C)n1c(N2CCN(C(=O)CSc3ccccc3)CC2)cc(=O)n(C(C)C)c1=O` came in with an RP-LC retention time of 902 s.

Take `COc1ccc(-c2noc(C3CCCN3C(=O)NC3CCCC3)n2)cc1` (stereo not drawn): the RP-LC retention time amounted to 881 s. In the case of `COc1cccc(CNC(=O)N2CCC(n3c(-c4ccco4)nc4cccnc43)C2)c1` (stereo not drawn), the RP-LC retention time amounted to 712 s.

Compound `COc1ccc(S(=O)(=O)N2CC3CN(C(=O)C4CCOC4)CC(C2)O3)cc1` (stereo not drawn) registered an RP-LC retention time of 659 s.

For `O=C(Nc1ccccc1)c1ccc(=O)n(CCN2CCOCC2)c1`, the RP-LC retention time was found to be 590 s.

`Cc1sc(-c2cc(C(F)(F)F)[nH]n2)cc1S(=O)(=O)N1CC=C(c2ccccc2)CC1` yielded an RP-LC retention time of 1190 s. `CCN(C(=O)c1ccccc1Br)c1nc(-c2ccccc2)cs1` showed an RP-LC retention time of 1330 s.

As to `COc1cccc(NC(=O)Cn2ccc3ccc(-c4nnc(C)o4)cc32)c1`, the RP-LC retention time worked out at 788 s. The compound `COc1cc(-c2nc3ccc(Cl)cn3c2Nc2ccccc2C)ccc1O` gave an RP-LC retention time of 720 s. The compound `O=C(CCC1CCN(c2cc(NC3CC3)ncn2)CC1)NCc1ccc(F)cc1Cl` gave an RP-LC retention time of 689 s.

`COc1cc(-c2cc(CN(CC3CCCO3)C(=O)C3CCCCC3)no2)cc(OC)c1OC` (stereo not drawn) registered an RP-LC retention time of 968 s. On to `CC(C)CC1OC(=O)C2=CCCCC21` (stereo not drawn), for which the RP-LC retention time is 1050 s. Regarding `Cc1nc(C)c(C(=O)N2CCC3(CC2)CCC(O)(CN(C)C)CC3)s1`, the RP-LC retention time amounted to 555 s.

Take `CCOc1ccc(NC(=O)Cn2c(-c3cnccn3)nc(C)c(C)c2=O)cc1`: the RP-LC retention time was found to be 735 s. For `NS(=O)(=O)c1ccc(CCNC(=O)c2cn3cc(Cl)ccc3n2)cc1`, the RP-LC retention time was found to be 660 s. Next, `COc1ccc(OC)c(S(=O)(=O)N2CCCC(C(=O)NCc3ccccc3OC)C2)c1` (stereo not drawn): 854 s; `Cc1noc(C)c1S(=O)(=O)NCC1CCN(C(=O)Nc2ccc(F)cc2)CC1`: 742 s; `Cc1ccc2c(c1)NC(=O)c1cc(NC(=O)c3ccno3)ccc1O2`: 719 s. With `CC(C)(C)c1noc(-c2ccnc(-n3cnc(C(=O)N4CCOCC4)c3)c2)n1`, the RP-LC retention time turned out to be 808 s. `CCCCN1C(=O)C(C)(C(=O)Nc2ccc(C)cc2C)Oc2cccnc21` (stereo not drawn) displayed an RP-LC retention time of 1090 s.

`Cc1cc(C)n(-c2ccnc(NCCc3ccccn3)n2)n1`: the RP-LC retention time is 596 s. `COc1ccc(-c2noc(N3CCC(C(=O)NC4CC4)CC3)n2)cc1OC` came in with an RP-LC retention time of 690 s. `O=C(CCc1ccccc1)NCCN1CCN(c2ccc(Cl)cc2)CC1` yielded an RP-LC retention time of 619 s.

In turn, `COc1ccc(N2CC(c3nc(-c4ccc(C)cc4)no3)CC2=O)c(OC)c1` (stereo not drawn) registered an RP-LC retention time of 888 s. The compound `COc1ccccc1-c1nnc(-c2ccc(C)c(S(=O)(=O)N(C)C)c2)o1` yielded an RP-LC retention time of 895 s. For the compound `CCCCCNC(=O)c1ccc2nc(CCc3ccc(NC(=O)C(C)C)cc3)[nH]c2c1`, the RP-LC retention time stood at 689 s. As to `CCOC(=O)c1c(S(=O)(=O)N2CCC(C(=O)Nc3ccc4c(c3)OCO4)CC2)c(C)n(C)c1C`, the RP-LC retention time was 807 s. `CCc1noc(-c2ccc(-n3cnc(C(=O)N(C)C4CCCCC4)c3)nc2)n1` came in with an RP-LC retention time of 944 s. Next, `Cc1nc(-c2csc(S(=O)(=O)N3CCCC(C(=O)NC4CCCCCC4)C3)c2)no1` (stereo not drawn): 1000 s. `CSc1ccc(-c2nc3c(C)cccn3c2NC2CCCCC2)cc1` came in with an RP-LC retention time of 868 s.

Consider `O=S(=O)(c1ccc(Br)cc1)N1CCCC1c1nc(-c2ccc(F)cc2)no1` (stereo not drawn), for which the RP-LC retention time was determined as 1160 s.

`CC(C)Oc1ccc(-c2noc(Cc3nnc(-c4ccc(F)cc4)o3)n2)cc1`: the RP-LC retention time is 1110 s. In the case of `O=C(Cc1ccccc1Br)N1CCN(c2cc(-c3cccs3)[nH]n2)CC1`, the RP-LC retention time stood at 837 s.
